Assay results published in EPA's ToxValDB 9.5 (doi:10.2903/j.efsa.2016.4610).
Converted amounts (≈) assume the structure as drawn.

Experiments:
Folsomia candida = conditions: chronic/long-term; duration: 28 days; reproduction
Tagia sp. = conditions: chronic/long-term; growth
[1] = chronic
Anas platyrhynchos = conditions: chronic/long-term
Apis mellifera = conditions: acute, mortality
Cyprinodon variegatus = conditions: acute; duration: 96 hours; mortality
Pimephales promelas = conditions: chronic/long-term; duration: 35 days; reproduction
Poephila guttata = conditions: acute; oral; unspecified; mortality
Xenopus laevis = conditions: chronic/long-term; duration: 21 days; growth
Aphidius rhopalosiphi = assay: LR50; higher = less toxic; conditions: acute; duration: 48 hours; mortality
Typhlodromus pyri = assay: LR50; higher = less toxic; conditions: chronic/long-term; duration: 14 days; mortality

Work on `CC(=N)N(C)Cc1ccc(Cl)nc1` [Acetamiprid metabolite (IM-1-5)] yielded an NOEC (Folsomia candida) of 12.5 mg/kg and an NOEC (Tagia sp.) of 62.5 mg/kg.
`CC(=NC#N)N(C)Cc1ccc(Cl)nc1` [Acetamiprid] showed an NOEC [1] of 0.0011 mg/L, an NOAEL (Anas platyrhynchos) of 9.5 mg/kg-day and an LD50 (Apis mellifera; dermal) of 9.26 µg/piece. It also gave an LD50 (Apis mellifera; oral, unspecified) of 8.85 µg/piece, an LC50 (Cyprinodon variegatus) of 100 µg/mL (≈ 449 µM) and an NOEC (Folsomia candida) of 0.27 mg/kg. The NOEC (Pimephales promelas) was 9.4 mg/L, the LD50 (Poephila guttata) was 5.7 mg/kg-day and the LD50 (Rattus norvegicus; acute, oral, mortality) was 146 mg/kg-day. For the same molecule, the NOAEL (Rattus norvegicus; developmental, development) was 2.5 mg/kg-day, the NOEC (Xenopus laevis) was 2.6 mg/L and the LR50 (Aphidius rhopalosiphi) was 2 g/ha. It also gave an LR50 (Typhlodromus pyri) of 29.7 g/ha.
